27 molecules from paper PMC6522510 (Nature Communications, 2019) can be followed below.

Assay [1] deals with ML2. Kind of assay: Secondary dose-response HTS, Cell Titer Glo. Type of assay: cell-based, human.
In assay [2] the test system is MV4-11. Kind of assay: Secondary dose-response HTS, Cell Titer Glo. Type of assay: cell-based, human. On the technique in general: Cellular ATP, detected with luciferase, serves as a proxy for viable cell number.
In assay [3] the test system is CMK. The assay can be described thus: Secondary dose-response HTS, Cell Titer Glo. The note with it: CMK; for average effective concentration, CMK: secondary high-throughput screen. It counts as cell-based, human.
Assay [4] has as its system MV4-11. Kind of assay: cells. On the set-up: species or system AML cell lines (8); Secondary HTS, 10-point dose-response in triplicate, Cell Titer Glo viability, four-parameter fit EC50. To be noted: Homo sapiens, MV4-11, 72 h, read-out: MV4-11.
The subject of assay [5] is CHRF288-11. Kind of assay: Secondary dose-response HTS, Cell Titer Glo. Type of assay: cell-based, human. The note with it: secondary high-throughput screen; CHRF288-11.
Assay [6] deals with M07e. The assay can be described thus: cells. On the set-up: species or system AML cell lines (8); Secondary HTS, 10-point dose-response in triplicate, Cell Titer Glo viability, four-parameter fit EC50. The note with it: M-07e, 72 h, read-out: M07e.
Assay [7] relates to CMS. On the set-up: species or system AML cell lines (8); Primary HTS, single concentration about 10 uM, Cell Titer Glo viability; log10 luminescence, per cent inhibition relative to cycloheximide control. To be noted: 72 h, relative to cycloheximide control, log10 luminescence; inhibitor.
Assay [8] relates to U937. Further details: species or system AML cell lines (8); Primary HTS, single concentration about 10 uM, Cell Titer Glo viability; log10 luminescence, per cent inhibition relative to cycloheximide control. To be noted: 72 h, relative to cycloheximide control, log10 luminescence; inhibitor.
The test system of assay [9] is M07e. Further details: species or system AML cell lines (8); Primary HTS, single concentration about 10 uM, Cell Titer Glo viability; log10 luminescence, per cent inhibition relative to cycloheximide control. The note with it: 72 h, relative to cycloheximide control, log10 luminescence; inhibitor.
In assay [10] the test system is CMK. Further details: species or system AML cell lines (8); Primary HTS, single concentration about 10 uM, Cell Titer Glo viability; log10 luminescence, per cent inhibition relative to cycloheximide control. The note with it: 72 h, relative to cycloheximide control, log10 luminescence; inhibitor.
Assay [11] deals with MOLM-13. Further details: species or system AML cell lines (8); Primary HTS, single concentration about 10 uM, Cell Titer Glo viability; log10 luminescence, per cent inhibition relative to cycloheximide control. To be noted: 72 h, relative to cycloheximide control, log10 luminescence; inhibitor.
In assay [12] the test system is MV4-11. On the set-up: species or system AML cell lines (8); Primary HTS, single concentration about 10 uM, Cell Titer Glo viability; log10 luminescence, per cent inhibition relative to cycloheximide control. To be noted: 72 h, relative to cycloheximide control, log10 luminescence; inhibitor.
Assay [13] relates to CHRF288-11. Further details: species or system AML cell lines (8); Primary HTS, single concentration about 10 uM, Cell Titer Glo viability; log10 luminescence, per cent inhibition relative to cycloheximide control. The note with it: 72 h, relative to cycloheximide control, log10 luminescence; inhibitor.
Assay [14] concerns ML-2. Further details: species or system AML cell lines (8); Primary HTS, single concentration about 10 uM, Cell Titer Glo viability; log10 luminescence, per cent inhibition relative to cycloheximide control. To be noted: 72 h, relative to cycloheximide control, log10 luminescence; inhibitor.
Setting [15] is: secondary high-throughput screen, MV4-11.

Counter-ions that a name gives are not always drawn. Like-named read-outs stand apart in the source and are kept apart here.

Turning to `COc1ccc(C[C@H](NC(=O)[C@H](C)NC(=O)CN2CCOCC2)C(=O)N[C@@H](Cc2ccccc2)C(=O)C2(C)CO2)cc1` (stereo in doubt) [ONX-0914, reference compound], the EC50 in [1] (secondary HTS, 72 h, average of triplicate, read-out: EC50 ML2) turned out to be 40 nM; in assay [2] (secondary HTS, 72 h, average of triplicate, read-out: EC50 MV4-11) it was 50 nM.

`CNC(=O)c1ccccc1Sc1ccc2c(/C=C/c3ccccn3)n[nH]c2c1` [AXITINIB]: the EC50 in [2] (Homo sapiens, secondary high-throughput screen, MV4-11, read-out: average effective concentration, MV4-11) was 1100 nM.

Turning to `Cn1cccc1/C=C1\C(=O)NC(=O)c2ccccc21` [BYK 204165], the “average effective concentration, CMK” value in assay [3] was “Inactive”.

On to `COc1ccc(-c2nc(N3CCOCC3)c3sc(CN(C)c4ncc(C(=O)NO)cn4)cc3n2)cn1` [CUDC-907], for which the EC50 in assay [4] came to 0.21 nM.

As for `C[C@@H]1NC(=O)[C@H]2CCCN2C(=O)[C@H](CCCCCC(=O)[C@@H]2CO2)NC(=O)[C@@H](C)NC1=O` [HC TOXIN], the “average effective concentration, MV4-11” value in [2] (setting [15]) is recorded as “Inactive”. The “average effective concentration, CMK” value in [3] is on record as “Inactive”.

For `CCNC(=O)C[C@@H]1N=C(c2ccc(Cl)cc2)c2cc(OC)ccc2-n2c(C)nnc21` [I-BET-762], the “average effective concentration, CMK” value in assay [3] is “Inactive”. Further, in assay [5], the “average effective concentration, CHRF288-11” value is “Inactive”.

Regarding `CCN1CCN(CC(=O)Nc2ccc(-c3cccc4c(=O)cc(N5CCOCC5)oc34)c3sc4ccccc4c23)CC1` [KU-0060648], in assay [2] (setting [15]), the “average effective concentration, MV4-11” value was “Inactive”.

Take `CO[C@H](C(=O)[C@@H](O)[C@@H](C)O)[C@@H]1Cc2cc3cc(O[C@H]4C[C@@H](O[C@H]5C[C@@H](O)[C@H](O)[C@@H](C)O5)[C@H](O)[C@@H](C)O4)c(C)c(O)c3c(O)c2C(=O)[C@H]1O[C@H]1C[C@@H](O[C@H]2C[C@@H](O[C@H]3C[C@](C)(O)[C@H](O)[C@@H](C)O3)[C@@H](O)[C@@H](C)O2)[C@H](O)[C@@H](C)O1` [MITHRAMYCIN A]: the EC50 in [6] is above 10000 nM.

With `O=C1c2c(O)ccc(O)c2C(=O)c2c(NCCNCCO)ccc(NCCNCCO)c21` [MITOXANTHRONE], in assay [1] (secondary high-throughput screen, ML-2, read-out: average effective concentration, ML-2), the EC50 is 240 nM.

Consider `C=CCn1c(=O)c2cnc(Nc3ccc(N4CCN(C)CC4)cc3)nc2n1-c1cccc(C(C)(C)O)n1` [MK-1775], for which the EC50 in assay [6] is above 10000 nM.

`CC(C)C(=O)SCCCCCCC(=O)Nc1nc(-c2ccccc2)cs1` [NCH 51]: in [2] (setting [15]), the “average effective concentration, MV4-11” value is “Inactive”. For the same molecule, in assay [3], the “average effective concentration, CMK” value is “Inactive”.

`CNC(=O)c1ccccc1Nc1nc(Nc2ccc(N3CCOCC3)cc2OC)ncc1Cl` [NVP-TAE226]: the “average effective concentration, MV4-11” value in assay [2] (setting [15]) is “Inactive”.

For the molecule `COC[C@H](NC(=O)c1cnc(C)s1)C(=O)N[C@@H](COC)C(=O)N[C@@H](Cc1ccccc1)C(=O)[C@@]1(C)CO1` [Oprozomib], the EC50 in assay [4] came to 8.6 nM; in assay [6], 6.3 nM.

On to `Cc1ccc(NC(=O)CCCCCC(=O)Nc2ccccc2N)cc1` [PIMELIC DIPHENYLAMIDE 106], for which, in [2] (setting [15]), the “average effective concentration, MV4-11” value was “Inactive”. Also, the “average effective concentration, CMK” value in [3] was “Inactive”.

Regarding `CS(=O)(=O)N1CCN(Cc2cc3nc(-c4cccc5[nH]ncc45)nc(N4CCOCC4)c3s2)CC1` [Pictilisib, reference compound], in assay [3] (Homo sapiens, read-out: average effective concentration, CMK), the EC50 worked out at 2300 nM.

On to `COc1ccc([C@@]23Oc4cc(OC)cc(OC)c4[C@]2(O)[C@H](O)[C@H](C(=O)N(C)C)[C@H]3c2ccccc2)cc1` [ROCAGLAMIDE A], for which the “average effective concentration, MV4-11” value in assay [2] (setting [15]) is reported as “Inactive”.

On to `Cc1cc(Nc2ccc(NC(=O)c3ccc(Nc4ccnc5ccccc45)cc3)cc2)nc(N)n1` [SGI-1027], for which the “average effective concentration, CMK” value in assay [3] was “Inactive”.

On to `NC(=O)c1cc(-c2ccc(Cl)cc2)cc(-c2ccc(S(N)(=O)=O)cc2)c1N` [SJ000773162-1, IKK INHIBITOR XII], for which the CMS %inh in assay [7] came to 0.8646%. For the same molecule, in [8], the U937 %inh was 5.575%. Also, in assay [9], the M07e %inh was -0.482%. Moreover, the CMK %inh in [10] stood at 7.074%. In assay [11], the MOLM-13 %inh is on record as 3.294%. The molecule also displayed an MV4-11 %inh in assay [12] of 6.438%. Also, in assay [13], the CHRF288-11 %inh worked out at 5.412%. The ML-2 %inh in [14] came to 2.717%.

In the case of `O=C(N/N=C/c1coc2ccccc2c1=O)c1cccnc1` [SJ000773164-1, STAT5 INHIBITOR], the CMS %inh in assay [7] is listed as -3.081%. The U937 %inh in [8] worked out at 1.718%. In addition, the M07e %inh in assay [9] was -2.508%. Also, the CMK %inh in assay [10] is 0.4302%. In addition, the MOLM-13 %inh in assay [11] was determined as 0.6226%. The same molecule showed an MV4-11 %inh in assay [12] of 5.196%. Besides, in assay [13], the CHRF288-11 %inh was 2.609%. Besides, in assay [14], the ML-2 %inh was 0.5689%.

With `CCOC(=O)c1c(C)[nH]c(/C=C2\C(=O)Nc3ccccc32)c1C` [SJ000773165-1, VEGFR2 KINASE INHIBITOR I], the CMS %inh in assay [7] is -2.877%. In addition, the U937 %inh in assay [8] is reported as -1.551%. For the same molecule, the M07e %inh in assay [9] is reported as -1.094%. The CMK %inh in assay [10] is given as 1.896%. The molecule also showed an MOLM-13 %inh in [11] of 14.97%. The molecule also registered an MV4-11 %inh in assay [12] of 4.438%. In addition, the CHRF288-11 %inh in assay [13] is on record as 3.3%. Further, in [14], the ML-2 %inh is recorded as -1.978%.

Take `O=C1Cc2c([nH]c3ccc(Br)cc23)-c2ncccc2N1` [SJ000773177-1, 1-AZAKENPAULLONE]: the CMS %inh in [7] is reported as 11.6%. Also, the U937 %inh in [8] was found to be 4.514%. The M07e %inh in assay [9] worked out at 0.4716%. For the same molecule, in assay [10], the CMK %inh is given as -2.288%. In [11], this molecule displayed an MOLM-13 %inh of 1.556%. Besides, in [12], the MV4-11 %inh stood at 9.942%. The CHRF288-11 %inh in assay [13] is 3.099%. Moreover, the ML-2 %inh in assay [14] worked out at 3.703%.

Consider `Nc1[nH]nc2nnc(-c3c(-c4ccccc4)nn4ccccc34)cc12` [SJ000773182-1, FR 180204], for which the CMS %inh in assay [7] came to 0.8706%. Also, the U937 %inh in assay [8] amounted to 0.5636%. For the same molecule, the M07e %inh in [9] turned out to be 4.808%. Further, the CMK %inh in [10] stood at 2.552%. The molecule also had an MOLM-13 %inh in assay [11] of 10.92%. In addition, in assay [12], the MV4-11 %inh is 11.54%. In addition, in assay [13], the CHRF288-11 %inh was 4.206%. In assay [14], the ML-2 %inh is listed as 1.644%.

Regarding `O=C(O)c1cc2cc(O)c(O)cc2c(C(=O)c2ccc(O)c(O)c2)n1` [SJ000773184-1, NBI-31772], the CMS %inh in assay [7] is 0.1786%. The U937 %inh in assay [8] is on record as 2.592%. Besides, the M07e %inh in [9] came to 0.05281%. The CMK %inh in assay [10] stood at 20.66%. Further, the MOLM-13 %inh in assay [11] is recorded as 2.784%. The molecule also registered an MV4-11 %inh in assay [12] of 0.9533%. Besides, the CHRF288-11 %inh in assay [13] is reported as -3.882%. In addition, in assay [14], the ML-2 %inh is listed as 4.963%.

On to `N#Cc1cnc2cnc(NCc3cccnc3)cc2c1Nc1ccc(F)c(Cl)c1` [SJ000773185-1, TPL2 KINASE INHIBITOR], for which, in assay [7], the CMS %inh was -1.042%. The U937 %inh in assay [8] is listed as 7.932%. For the same molecule, in assay [9], the M07e %inh is listed as 3.597%. Further, the CMK %inh in assay [10] is on record as 12.32%. For the same molecule, the MOLM-13 %inh in assay [11] is given as 88.46%. The molecule further registered an MV4-11 %inh in assay [12] of 3.7%. For the same molecule, in assay [13], the CHRF288-11 %inh is listed as 6.987%. In addition, the ML-2 %inh in assay [14] was -0.1066%.

`O=C(Nc1ccccc1-c1cn2c(CN3CCNCC3)csc2n1)c1cnc2ccccc2n1` [SRT1720]: the “average effective concentration, MV4-11” value in assay [2] (setting [15]) was “Inactive”. In addition, the “average effective concentration, CMK” value in assay [3] is “Inactive”.

`CC/C(=C(\c1ccccc1)c1ccc(OCCN(C)C)cc1)c1ccccc1` [TAMOXIFEN CITRATE]: the EC50 in [4] was above 10000 nM.

Consider `COc1cc(OC)c(/C=C/S(=O)(=O)Cc2ccc(OC)c(NCC(=O)O)c2)c(OC)c1` [rigosertib], for which the EC50 in [4] is 12.4 nM; in assay [6], above 10000 nM.
